The values below come from paper doi:10.1101/2025.07.01.662609v1, “BtuJ1, a novel surface-exposed B12-binding protein in Bacteroidetes, functions as an extracellular vitamin reservoir that enhances fitness” (biorxiv, 2025).

For the test, the target named is T1, BtuJ1 (BT1491) (Bacteroides thetaiotaomicron, UniProt Q8A7N3).
T1 construct: gene BT_1491; mature part without lipid anchor residue (signal peptide cleaved between 21 and 22); His-tagged, pET28 NcoI/XhoI, E. coli BL21(DE3); modelled from Met29
T1 sequence (Q8A7N3 23-256): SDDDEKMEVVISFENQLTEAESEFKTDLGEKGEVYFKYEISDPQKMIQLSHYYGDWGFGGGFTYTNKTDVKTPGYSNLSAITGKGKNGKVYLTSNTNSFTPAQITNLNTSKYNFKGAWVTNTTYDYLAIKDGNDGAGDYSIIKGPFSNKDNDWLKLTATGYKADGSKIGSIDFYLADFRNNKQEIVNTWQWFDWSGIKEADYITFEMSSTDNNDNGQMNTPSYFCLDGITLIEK
As to the kind of experiment: binding shown in supplementary figure, method not stated in main text. The following applies: AdoCbl added at 1:2 protein:corrinoid, then SEC in 10 mM Hepes, 100 mM NaCl, pH 7.5.

Structures are written as SMILES.

On to `C/C1=C2/[N-][C@H]([C@H](CC(N)=O)[C@@]2(C)CCC(=O)NC[C@@H](C)OP(=O)([O-])O[C@H]2C(O)[C@@H](n3cnc4cc(C)c(C)cc43)O[C@@H]2CO)[C@]2(C)N=C(/C(C)=C3N=C(/C=C4N=C1[C@@H](CCC(N)=O)C\4(C)C)[C@@H](CCC(N)=O)[C@]\3(C)CC(N)=O)[C@@H](CCC(N)=O)[C@]2(C)CC(N)=O.[CH2-][C@H]1O[C@@H](n2cnc3c(N)ncnc32)[C@H](O)[C@@H]1O.[Co+3]` (stereo partly shown) [AdoCbl, adenosylcobalamin], for which the “binding shown in supplementary figure, method not stated in main text” value is on record as “BtuJ1 also binds adenosylcobalamin, which has a bulkier upper ligand compared to other cobalamins”.
